In series [1] the target is T1, Solute carrier family 15 member 1 (Homo sapiens, UniProt P46059).
T1 sequence (P46059 whole entry): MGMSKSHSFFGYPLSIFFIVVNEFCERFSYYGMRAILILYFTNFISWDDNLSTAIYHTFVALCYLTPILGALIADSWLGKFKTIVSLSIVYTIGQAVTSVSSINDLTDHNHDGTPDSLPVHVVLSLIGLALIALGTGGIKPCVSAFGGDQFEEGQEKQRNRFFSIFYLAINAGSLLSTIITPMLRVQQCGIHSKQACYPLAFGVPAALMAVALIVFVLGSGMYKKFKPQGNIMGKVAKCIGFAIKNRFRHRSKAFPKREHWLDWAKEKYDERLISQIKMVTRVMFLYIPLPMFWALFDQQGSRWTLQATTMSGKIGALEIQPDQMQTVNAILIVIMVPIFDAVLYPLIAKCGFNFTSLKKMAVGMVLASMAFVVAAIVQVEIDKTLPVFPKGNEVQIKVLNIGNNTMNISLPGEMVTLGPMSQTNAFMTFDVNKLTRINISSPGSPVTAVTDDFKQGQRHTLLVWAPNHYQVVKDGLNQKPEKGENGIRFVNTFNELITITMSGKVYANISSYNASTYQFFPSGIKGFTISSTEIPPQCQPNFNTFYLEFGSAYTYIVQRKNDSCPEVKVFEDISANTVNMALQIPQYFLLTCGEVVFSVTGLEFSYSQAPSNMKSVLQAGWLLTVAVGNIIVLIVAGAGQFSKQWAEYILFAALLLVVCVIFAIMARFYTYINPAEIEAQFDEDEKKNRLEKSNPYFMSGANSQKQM
The experiment in a line: TP_TRANSPORTER: inhibition of Gly-Sar uptake (Gly-Sar: 20 uM) in PEPT1-expressing CHO cells. In kind it is functional, cell-based.

For series [2], the target named is T1, Solute carrier family 15 member 1. The experiment in a line: TP_TRANSPORTER: inhibition of Gly-Sar uptake, L-form (Gly-Sar: 20 uM) in PEPT1-expressing CHO cells. It counts as functional, cell-based.
Series [3] shares this target. The series is described as follows: TP_TRANSPORTER: inhibition of Gly-Sar uptake, D-form (Gly-Sar: 20 uM) in PEPT1-expressing CHO cells. In kind it is functional, cell-based.
Substrate in series [4]: CC(C)[C@H](N)C(=O)OCCOCn1cnc2c(=O)nc(N)[nH]c21
Description: TP_TRANSPORTER: transepithelial transport (apical to basal), L-form in Caco-2 cells
The following applies: Caco-2.

One may read the IC50 as the concentration needed to halve the response being measured. Lower therefore signals greater potency. In series [1], `CC1=C(C(=O)O)N2C(=O)[C@@H](NC(=O)[C@H](N)C3=CCC=CC3)[C@H]2SC1` [CEPHRADINE] returned an IC50 of 15000 µM.
As to `CCOC(=O)[C@H](CCc1ccccc1)N[C@@H](C)C(=O)N1CCC[C@H]1C(=O)O` [ENALAPRIL], in series [1], the IC50 is 15000 µM.
The same measure, in the same setting: the value for `NCC(=O)OCCOCn1cnc2c(=O)[nH]c(N)nc21` [GLYCYL ESTER OF ACYCLOVIR] was 1400 µM.
On to `CC(C)[C@H](N)C(=O)OCCOCn1cnc2c(=O)[nH]c(N)nc21` [VALACYCLOVIR], for which the IC50 was found to be 1100 µM in series [2], 3400 µM in series [3] and 400 µM in series [1].

B1: Solute carrier family 15 member 1 (Homo sapiens), P46059 (protein)
chain: T1 sequence (P46059 whole entry)
By Km is commonly meant the substrate concentration at which the rate is half of its maximum. In the case of B1, in series [4], the Km came out at 292 µM.

The values above are taken from ChEMBL document CHEMBL2074308, “5'-Amino acid esters of antiviral nucleosides, acyclovir, and AZT are absorbed by the intestinal PEPT1 peptide transporter” (Pharm Res, 1998).
